Reference: paper PMC4476725 (PLoS Pathogens, 2015)
pIC50: −log10 of the molar value. Like-named read-outs stand apart in the source and are kept apart here.

Experiments:
[1] = biological target: RSV polymerase QUAD mutant (Human respiratory syncytial virus A, UniProt P28887, A789V/I796V/L795I/M628L); test: Single nucleotide incorporation by recombinant RSV L-P polymerase, QUAD mutant; assay type: biochemical; settings: recombinant L-P enzymes
[2] = biological target: T1, wild-type RSV L-P RNA polymerase complex (Human respiratory syncytial virus A, UniProt P28887); assay type: biochemical; settings: Fig 5A
T1 construct: made in house; host or cells: insect cells

HCV polymerase = HCV polymerase (Hepatitis C virus genotype 1b, UniProt Q9WMX2); test: HCV polymerase inhibition assay; assay type: biochemical
[3] = biological target: human mitochondrial RNA polymerase (Homo sapiens, UniProt O00411); test: DdRp assay with human mitochondrial RNA polymerase, single turnover; assay type: biochemical; settings: 100 μM of each NTP
Chain of human mitochondrial RNA polymerase (O00411 42-1230): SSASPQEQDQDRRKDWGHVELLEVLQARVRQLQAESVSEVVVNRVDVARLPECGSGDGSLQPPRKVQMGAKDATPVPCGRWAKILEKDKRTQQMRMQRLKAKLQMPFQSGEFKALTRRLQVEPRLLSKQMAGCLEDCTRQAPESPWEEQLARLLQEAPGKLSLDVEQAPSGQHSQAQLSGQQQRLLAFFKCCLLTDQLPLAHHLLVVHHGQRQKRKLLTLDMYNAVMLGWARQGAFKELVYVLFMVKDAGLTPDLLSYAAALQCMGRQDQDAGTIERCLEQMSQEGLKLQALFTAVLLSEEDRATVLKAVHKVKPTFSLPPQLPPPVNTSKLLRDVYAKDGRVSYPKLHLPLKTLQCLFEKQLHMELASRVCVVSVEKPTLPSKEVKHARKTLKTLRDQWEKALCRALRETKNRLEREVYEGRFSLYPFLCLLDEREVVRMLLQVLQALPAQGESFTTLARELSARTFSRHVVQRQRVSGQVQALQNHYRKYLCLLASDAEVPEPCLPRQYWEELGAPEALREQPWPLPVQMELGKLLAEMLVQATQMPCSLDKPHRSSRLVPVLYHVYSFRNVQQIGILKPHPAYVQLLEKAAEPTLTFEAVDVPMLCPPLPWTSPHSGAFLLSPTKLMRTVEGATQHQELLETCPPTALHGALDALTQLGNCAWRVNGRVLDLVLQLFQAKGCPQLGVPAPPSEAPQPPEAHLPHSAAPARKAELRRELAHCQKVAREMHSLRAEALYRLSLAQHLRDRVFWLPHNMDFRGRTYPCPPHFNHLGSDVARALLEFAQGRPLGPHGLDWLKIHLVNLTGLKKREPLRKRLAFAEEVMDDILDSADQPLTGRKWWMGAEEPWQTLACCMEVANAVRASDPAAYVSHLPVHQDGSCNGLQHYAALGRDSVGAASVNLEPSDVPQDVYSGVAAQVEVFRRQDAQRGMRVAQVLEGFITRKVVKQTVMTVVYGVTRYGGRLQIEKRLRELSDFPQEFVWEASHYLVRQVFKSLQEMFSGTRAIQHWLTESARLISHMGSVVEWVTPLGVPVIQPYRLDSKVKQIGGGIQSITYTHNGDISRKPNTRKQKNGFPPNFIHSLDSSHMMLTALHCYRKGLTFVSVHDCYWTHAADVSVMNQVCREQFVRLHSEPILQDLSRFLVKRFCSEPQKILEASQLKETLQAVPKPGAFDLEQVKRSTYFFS

QUAD RNP complex = QUAD RNP complex (Human respiratory syncytial virus A, UniProt P28887, A789V/I796V/L795I/M628L); assay type: biochemical
PIV-1 polymerase = PIV-1 polymerase (Human respirovirus 1, UniProt Q8QT26); test: biochemical; settings: Parainfluenza virus type-1 polymerase
RSV RNP complex = RSV RNP complex (Human respiratory syncytial virus A, UniProt P28887); test: biochemical; assay type: biochemical
IAV polymerase = IAV polymerase (Influenza A virus, UniProt P03431); test: IAV polymerase gel-based assay; assay type: biochemical

Q: Which results are given for `Nc1ccn([C@@H]2O[C@](CCl)(COP(=O)(O)OP(=O)(O)OP(=O)(O)O)[C@@H](O)[C@H]2F)c(=O)n1` [ALS-8112-TP, 2'-Fluoro-4'-Chloromethyl-Cytidine Triphosphate]?
A: increase in discrimination, QUAD vs WT (resistance level) [1]: 4.6 fold; substrate and chain termination profile with recombinant RSV polymerase (in words) [2]: both substrates and chain terminators; inhibition of HCV polymerase (in words) (HCV polymerase; Fig 5B): not HCV polymerase; pIC50 (HCV polymerase; Hepatitis C virus polymerase, read-out: IC50): < 4.48; pIC50 (HCV polymerase; second symbol of RSV / HCV, read-out: HCV polymerase inhibition class (IC50)): < 5.00; recognition as substrate by human mitochondrial RNA polymerase (in words) [3]: not recognized as a substrate; inhibition of RdRp activity of the QUAD RNP complex (QUAD RNP complex): 57%; loss in inhibition potency compared to the wild-type protein (QUAD RNP complex): 145 fold; pIC50 (PIV-1 polymerase): 5.64; inhibition of RSV RNP complex (in words) (RSV RNP complex; Fig 5B): efficiently inhibit RSV; mode of inhibition of RSV RNP complex (RSV RNP complex; NTP competition, 1 or 100 μM NTP, 30 μM inhibitor): competitive inhibitor of cytidine monophosphate (CMP) incorporation; viral RNA transcription activity inhibited (in words) (RSV RNP complex; crude RNP complex from virus-infected cells): inhibited; pIC50 (IAV polymerase; Influenza virus polymerase, based on a single 100 μM concentration): < 4.00; inhibition at 100 µM (IAV polymerase; at 100 μM): 20.5%
